{
  "source": "patent US7820652B2",
  "about": "“Regimen for the administration of rifamycin-class antibiotics” (ActivBiotics Pharma, LLC, priority 2003, dated 2010)",
  "origin": "cited, not measured here",
  "data": [
    {"molecule": "CO[C@H]1/C=C/O[C@@]2(C)Oc3c(C)c(O)c4c(=O)c(c5oc6cc(N7CCN(CC(C)C)CC7)cc(O)c6nc-5c4c3C2=O)NC(=O)/C(C)=C\\C=C\\[C@H](C)[C@H](O)[C@@H](C)[C@@H](O)[C@@H](C)[C@H](OC(C)=O)[C@@H]1C", "note": "[rifalazil]", "values": [
      {"measurement": "number and severity of adverse reactions", "setting": "clinical trials, twice-a-week dosing regimen", "value": "clear dose-related incidence"},
      {"measurement": "blood cell counts and blood hemoglobin", "setting": "daily administration", "value": "changes in blood cell counts"},
      {"measurement": "adverse reactions", "setting": "daily dose regimen", "value": "severe adverse reactions"},
      {"measurement": "incidence of adverse reactions", "setting": "once- or twice-a-week dosing regimen", "value": "reduced, but did not eliminate"},
      {"measurement": "activity against mycobacterium species", "setting": "mycobacterium species", "value": "effective"},
      {"measurement": "efficacy against mycobacterium species", "setting": "mycobacterium species; once or twice-a-week dose regimen, U.S. Pat. No. 6,316,433", "value": "efficacious"}
    ]}
  ]
}
